Results as given in patent US6677302B2, “Compositions and methods for the treatment of viral disorders” (The Trustees of Boston University, priority 1996, dated 2004).
Where two headings read alike, the source gives them in different places. Marks after values point to notes of the source that are not given here.

Key:
PC-3 (prostate cancer) = test: Survival fraction after 72 hours exposure (MTT assay); format: cell-based, human
Protocol: (§1) Growth inhibition was measured by the MTT assay. Survival fraction is calculated from at least 3 experiments, and differences in survival fraction are statistically significant P<0.05, using the Paired Two-Sample For Means T-Test. […] PC-3=prostate cancer; A549=non-small cell cancer; OvCar=ovarian cancer; CaCo=colon cancer; MCF-7=breast cancer; and SW900=non-small cell lung cancer.

OvCar (ovarian cancer) = test: as above; format: cell-based, human
Protocol: as §1

[1] = test system: SW900 (non-small cell lung cancer); test: as above; format: cell-based, human
Protocol: as §1

MCF-7 (breast cancer) = test: as above; format: cell-based, human
Protocol: as §1

[2] = test system: A549 (non-small cell cancer); test: as above; format: cell-based, human
Protocol: (§2) Growth inhibition was measured by the MTT assay. […] PC-3=prostate cancer; A549=non-small cell cancer; OvCar=ovarian cancer; CaCo=colon cancer; MCF-7=breast cancer; and SW900=non-small cell lung cancer.

CaCo (colon cancer) = test: as above; format: cell-based, human; settings: 72 hour
Protocol: as §2

K562 = test: DNA fragmentation by flow cytometry; format: cell-based, human; settings: FIGS. 4 and 5
Source text: It has been shown that sodium butyrate can induce apoptosis in human tumors or tumor cell lines (L. A. Noorduyn et al., Histopathology 21:59, 1992).

[3] = test system: EBV+ and EBV− cell lines (X50-7, Akata, HPB-ALL, Nalm-6); test: Growth of EBV+ and EBV− cell lines; format: cell-based, human; settings: both EBV+ and EBV− cell lines
Source text: In some experiments sodium was used instead of arginine to neutralize butyric acid. […] Cell lines used were X50-7, a latent EBV+ B-cell lymphoma; Akata, a producer EBV+ Burkitt's lymphoma; HPB-ALL, a T-cell line; and Nalm-6, an EBV− B-cell line. Growth curves for X50-7 cells in different concentrations of sodium butyrate are shown in FIG. 8b and the growth curves for HPB-ALL cells in different concentrations of sodium butyrate are shown in FIG. 8c.

[4] = test system: post-transplant EBV-induced lymphomas; test: Compassionate treatment of post-transplant EBV-induced lymphomas; format: in vivo, human; settings: patient one; GCV for 2 weeks before arginine butyrate
Source text: Finally, two patients with post-transplant EBV-induced lymphomas have been treated on a compassionate basis with IRB approval. Each patient is summarized below.
Patient one was a person, 2 months post lung transplant. They were receiving cyclosporin to prevent impending rejection. They developed massive lymphadenopathy in mediastinum and hilum, with progressive respiratory failure. They were biopsy positive for EBV, and the tumor cells were monoclonal and of donor origin.
They had been off all therapy, except ganciclovir, for 3 weeks when they started arginine butyrate at 1,000 mg/kg/day. […] They eventually died from Aspergillus infection.
The second patient was a person, 4 months post-allogeneic bone marrow transplant for leukemia. They were receiving cyclosporin to prevent rejection. They developed cervical, mediastinal and abdominal lymphadenopathy, with brain metastases. A biopsy was positive for EBV and tumor cells were monoclonal confirming the diagnosis of LPD.
They had been treated with and had no response to XRT, CHOP, or α-IFN plus gamma globulin. They had been off all therapy for 2 weeks and was cachectic, too weak to ambulate, paraplegic, in constant pain and had been admitted for terminal care, when they started arginine butyrate at 1,000 mg/kg/day and ganciclovir.

[5] = children with acute myelogenous leukemia or neuroblastoma; 0.5-1.5 g/kg/day for 14 days and 10 g/kg/day IV; cited from earlier work
Rhabdomyosarcoma = test: MIC on cell proliferation, 7 days in culture; format: cell-based, human
Protocol: (§3) The ability of arginine butyrate to induce differentiation has been evaluated and is measured by inhibition of growth, in some of the neoplastic cell types previously reported to be sensitive to (sodium) butyric acid, and found arginine butyrate to be as potent as butyric acid. We have also extended that work to additional cell types and found Arginine Butyrate to induce differentiation in these new cell types. Table 1 lists the cell types tested and the minimum inhibitory concentration (MIC) of sodium butyrate (NaB) and arginine butyrate (ArgB) on these cell lines. The MIC is the lowest dose that prevents all growth over the 7 days that the cells are maintained in culture, that is the minimum dose that prevents an increase in cell number. […] The […] of ArgB and NaB were equivalent on all cell lines tested.

Choriocarcinoma (JAR) = test: MIC on cell proliferation, 7 days in culture; format: cell-based, human
Protocol: as §3

[6] = test system: Colonic Adenocarcinoma (HT29); test: MIC on cell proliferation, 7 days in culture; format: cell-based, human
Protocol: as §3

Myeloid Leukemia (HL60) = test: MIC on cell proliferation, 7 days in culture; format: cell-based, human
Protocol: as §3

Gastric Carcinoma (AGS) = test: MIC on cell proliferation, 7 days in culture; format: cell-based, human
Protocol: as §3

Osteosarcoma (HOS) = test: MIC on cell proliferation, 7 days in culture; format: cell-based, human
Protocol: as §3

Erythroleukemia (K562) = test: MIC on cell proliferation, 7 days in culture; format: cell-based, human
Protocol: as §3

[7] = test system: Fibroblasts (normal human); test: MIC on cell proliferation, 7 days in culture; format: cell-based; settings: lowest dose that prevents all growth over 7 days
Protocol: as §3

[8] = test system: Fibroblasts (mouse BALB/c-3T3); test: MIC on cell proliferation, 7 days in culture; format: cell-based
Protocol: as §3

[9] = Clinical toxicity in patients; format: in vivo, human; settings: adults; IV infusion of similar doses
Protocol: Clinical experience with butyrates have been performed in children with acute myelogenous leukemia in Israel, and in children with neuroblastoma (K. Prasad, Life Sci. 27:1351-58, 1980). […] Eleven pediatric patients and twelve adults with β-hemoglobinopathies were treated with IV arginine butyrate at a starting dose of 500 mg/kg/day for 2-7 weeks. If no side effects were noted, the rate was increased by 250 mg/kg/day to a final rate of 1500 mg/kg/day in 4 patients, and 2000 mg/kg/day in 2 patients. […] This rise in BUN returned to normal within 12 hours of discontinuation of drug, and is thought to be secondary to effect of arginine upon ureagenesis. […] Peak serum levels of butyrate ranged between 0.04-0.05 mM, and butyrate was not detectable 15 minutes after infusion was discontinued. Plasma arginine levels were also rapidly cleared, with a T1/2 of 15 minutes, and baseline arginine levels were reached within 12 hours after discontinuation of infusion.
Three patients with refractory neoplasms (breast, melanoma, adenocarcinoma, of unknown primary) have been enrolled and completed 1-2 cycles of arginine butyrate as a dose of 500 mg/kg/day over 6-8 hours for 10 days.
Three patients (with breast cancer, bowel cancer or Hodgkins disease) have completed two cycles of arginine butyrate at a dose of 750 mg/kg/day for 10 days. […] Otherwise, there was no other objective measures of organ progressed after treatment was topped. […] There was a further resolution of the disease during the second cycle. Disease progression was noted one month after second cycle was completed. At 1000 mg/kg/day, 3 patients have been enrolled on study.
An inter-group dose-escalation study is being conducted in patients with refractory malignancies. There are 3 patients per group with the dose levels starting at 500 mg/kg/day, and increasing by 250 mg/kg/day per group, if toxicity permits. Doses are given by 8 hour IV infusion, daily, for 5 days times 2 weeks, with weekends off, for a total of 10 days of treatment per cycle.

breast and colon lines = test: Enhancement of cytotoxicity of other chemotherapeutic agents by arginine butyrate; settings: evaluated with arginine butyrate
Source text: Other chemotherapeutic agents with non-overlapping mechanisms of antiproliferative activity such as 5-fluorouracil, taxol and interferon alpha have been evaluated with arginine butyrate.

[10] = Table 4, 0.1 A (0.1 μg/ml), 72 hour
[11] = Table 4, 0.5 A (0.5 μg/ml), 72 hour
[12] = Table 3, 1 CP (1.0 μg/ml), 72 hours
[13] = Table 3, 2 CP (2.0 μg/ml), 72 hours

## COc1cccc2c1C(=O)c1c(O)c3c(c(O)c1C2=O)C[C@@](O)(C(=O)CO)C[C@@H]3O[C@H]1C[C@H](N)[C@H](O)[C@H](C)O1 [A, adriamycin]
PC-3 (prostate cancer); [10]
  Survival Fraction: 0.72*
PC-3 (prostate cancer); [11]
  Survival Fraction: 0.68*
OvCar (ovarian cancer); [10]
  Survival Fraction: 0.83*
OvCar (ovarian cancer); [11]
  Survival Fraction: 0.81*
[1]; Table 4, 0.1 A (0.1 μg/ml)
  Survival Fraction: 0.82*
[1]; Table 4, 0.5 A (0.5 μg/ml)
  Survival Fraction: 0.76*
MCF-7 (breast cancer); Table 4, 0.1 A (0.1 μg/ml)
  Survival Fraction: 0.73*
MCF-7 (breast cancer); Table 4, 0.5 A (0.5 μg/ml)
  Survival Fraction: 0.69*
[2]; [10]
  Survival Fraction: 0.59*
[2]; [11]
  Survival Fraction: 0.59*
CaCo (colon cancer); Table 4, 0.1 A (0.1 μg/ml)
  Survival Fraction: 0.68*
CaCo (colon cancer); Table 4, 0.5 A (0.5 μg/ml)
  Survival Fraction: 0.62*
K562
  apoptotic activity on addition of arginine butyrate: increased their apoptotic activity

## N.N.[Cl][Pt][Cl] [CP, cisplatin]
PC-3 (prostate cancer); [12]
  Survival Fraction: 0.92
PC-3 (prostate cancer); [13]
  Survival Fraction: 0.49*
OvCar (ovarian cancer); [12]
  Survival Fraction: 0.91
OvCar (ovarian cancer); [13]
  Survival Fraction: 0.45*
[2]; [12]
  Survival Fraction: 0.77*
[2]; [13]
  Survival Fraction: 0.54*

## Nc1nc(O)c2ncn(COC(CO)CO)c2n1 [GCV, ganciclovir, reference compound]
[3]
  levels generally cytocidal: above 30 μM
[4]
  tumor response: showed no response

## CCCC(=O)[O-].[Na+] [NaB, sodium butyrate, reference compound]
[5]
  toxic side effects: without toxic side effects
Rhabdomyosarcoma
  MIC: 156 µM
Choriocarcinoma (JAR)
  MIC: 156 µM
[6]
  MIC: 2,000 μM
Myeloid Leukemia (HL60)
  MIC: 78 µM
Gastric Carcinoma (AGS)
  MIC: 2,000 μM
Osteosarcoma (HOS)
  MIC: 312 µM
Erythroleukemia (K562)
  MIC: >5,000 μM
[7]
  MIC: >5,000 μM
[8]
  MIC: >5,000 μM
[9]
  toxic side effects: no toxic side effects

## CC[C@@]1(O)C(=O)OCc2c1cc1n(c2=O)Cc2cc3ccccc3nc2-1 [camptothecin]
K562
  apoptotic activity on addition of arginine butyrate: increased their apoptotic activity

## C[C@@H]1C[C@@H]([C@H](O)CC2CC(=O)NC(=O)C2)C(=O)[C@@H](C)C1 [cyclohexamide]
K562
  apoptotic activity on addition of arginine butyrate: increased their apoptotic activity

## O=P1(N(CCCl)CCCl)NCCCO1 (stereo not shown) [cyclophosphamide]
K562
  apoptotic activity on addition of arginine butyrate: Lack of enhancement

## COc1cc([C@@H]2c3cc4c(cc3[C@@H](O[C@@H]3O[C@@H]5CO[C@@H](C)O[C@H]5[C@H](O)[C@H]3O)[C@H]3COC(=O)[C@H]23)OCO4)cc(OC)c1O [etoposide]
K562
  apoptotic activity on addition of arginine butyrate: increased their apoptotic activity

## CC(=O)O[C@H]1C(=O)[C@@]2(C)[C@H]([C@H](OC(=O)c3ccccc3)[C@]3(O)C[C@H](OC(=O)[C@H](O)[C@@H](NC(=O)c4ccccc4)c4ccccc4)C(C)=C1C3(C)C)[C@]1(OC(C)=O)CO[C@@H]1C[C@@H]2O [taxol]
Breast and colon lines
  concentration of agent at which enhancement of cytotoxicity was observed: exceeding 10 mM
